# Measured values taken from patent US20110287468A1, “METHODS AND COMPOSITIONS FOR ASSAYING ENZYMATIC ACTIVITY OF MYELOPEROXIDASE IN BLOOD SAMPLES” (General Atomics, priority 2010, published 2011).
# Tests used:
# Format in all cases: biochemical
# [1] = molecular target: T1, MPO (Homo sapiens, UniProt P05164); assay: Sensitivity of chromogenic substrates: MPO peroxidase activity in buffer solution; settings: 0.24 mM H2O2, 94 ng/mL MPO, 100 mM phosphate buffer pH 6.0-7.0; for ΔOD/min: read at the substrate's wavelength; for Sensitivity: class of ΔOD/min
# Excerpt: Substrate sensitivity was designated as “high” if ΔOD/min was above 0.2, “fair” if ΔOD/min was between 0.05 and 0.2, and “poor” if ΔOD/min was below 0.05.
# [2] = molecular target: T1, MPO; assay: Interference by a specific MPO inhibitor (ABAH) added to the formed dye; settings: 0.2 mM H2O2, 47 ng/mL MPO, 100 mM phosphate buffer pH 6.0-7.0; for Interference by Inhibitor: 0.1 mM ABAH added to the formed dye; for ΔOD/min (after inhibitor): after 0.1 mM ABAH; for ΔOD/min (before inhibitor): before ABAH
# Experimental: Interference by a specific MPO inhibitor was evaluated by adding 0.1 mM of 4-aminobenzoic acid hydrazide (ABAH) to the formed dye (i.e. the colored product of the substrate oxidation) in the buffer solution. Before the addition of the inhibitor, the reaction mixture contained the chromogenic substrates, as well as 0.2 mM H2O2 (co-substrate) and 47 ng/mL MPO in 100 mM phosphate buffer (pH 6.0-7.0). Interference by the inhibitor was designated as “low” if the absorption changed by ≦0.01 ΔOD/min and “high” if the absorption changed by >0.01 ΔOD/min. The results are summarized in Tables 2 and 6, and the corresponding kinetic traces are shown on FIG. 1.
# [3] = molecular target: T2, MPO (Homo sapiens, UniProt P05164); assay: MPO peroxidase assay in lithium heparin plasma (Hitachi 917): effects of common plasma substances on assay performance; settings: nearly neutral pH
# T2 construct: In a cuvette, 140 μL of Reagent 1 and 25 μL of plasma sample were mixed; from tissue; host or cells: human lithium heparin plasma
# T2 sequence (P05164 49-745): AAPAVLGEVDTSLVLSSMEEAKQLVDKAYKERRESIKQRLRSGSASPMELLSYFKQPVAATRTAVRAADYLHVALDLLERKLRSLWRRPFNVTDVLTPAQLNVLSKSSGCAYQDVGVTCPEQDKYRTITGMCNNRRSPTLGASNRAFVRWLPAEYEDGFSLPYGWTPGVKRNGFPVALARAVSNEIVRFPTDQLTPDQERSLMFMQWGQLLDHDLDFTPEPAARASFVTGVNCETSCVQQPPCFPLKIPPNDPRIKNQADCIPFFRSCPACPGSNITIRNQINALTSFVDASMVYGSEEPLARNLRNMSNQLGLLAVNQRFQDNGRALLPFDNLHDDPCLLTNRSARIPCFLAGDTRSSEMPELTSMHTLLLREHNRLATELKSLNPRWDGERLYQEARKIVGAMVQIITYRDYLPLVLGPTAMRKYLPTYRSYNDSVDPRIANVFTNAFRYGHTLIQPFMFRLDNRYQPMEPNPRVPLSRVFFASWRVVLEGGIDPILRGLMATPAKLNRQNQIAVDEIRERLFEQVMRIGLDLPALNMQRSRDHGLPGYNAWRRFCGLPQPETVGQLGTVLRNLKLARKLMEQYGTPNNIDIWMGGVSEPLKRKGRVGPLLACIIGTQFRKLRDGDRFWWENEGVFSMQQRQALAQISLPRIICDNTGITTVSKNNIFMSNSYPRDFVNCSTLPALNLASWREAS
# Experimental: To measure MPO peroxidase activity in blood samples, the following liquid stable, ready-to-use assay reagents were used:
# The MPO peroxidase assay is formulated for use with non-hemolyzed lithium heparin plasma. No special handling or pretreatment is required. Plasma samples were collected such that testing could be performed as soon as possible after the specimen collection. Although the specimens may be refrigerated at 2-8° C. for 2-5 days, freezing plasma samples may lead to a decrease in MPO peroxidase activity.
# In a cuvette, 140 μL of Reagent 1 and 25 μL of plasma sample were mixed and incubated at 37° C. for 1.5 minutes. Absorbance at 505 nm was read at about 2 minutes after the addition of 60 μL Reagent 2 as A1. The reaction was then incubated for approximately 3 more minutes, and the absorbance was read again as A2. The rate of the total peroxidation reaction was calculated as follows: Rate A=(A2−A1)/t, wherein t≈3 min
# At about 5 minutes after the addition of Reagent 2, 46 μL of Reagent 3 was added to the reaction mix. Absorbance at 505 nm was read at about 2 minutes after the addition of Reagent 3 as A3. The reaction was then incubated for approximately 3 more minutes and the absorbance was read again as A4. The rate of the non-MPO peroxidation reaction was calculated as follows: Rate B=(A4−A3)/t, wherein t 3 min […]
Compound,ΔOD/min [1],Sensitivity [1],also measured
"CCCCCCCCCCCCCC[N+](C)(C)Cc1ccccc1.[Cl-] [TDBA, Tetradecyldimethylbenzylammonium chloride]",0 ΔOD/min,Poor (“poor” if ΔOD/min was below 0.05),
"N-Ethyl-N-(2-hydroxy-3-sulfopropyl)-3-methoxylaniline, sodium salt, dehydrate/4AA [ADOS/4AA]",0.04 ΔOD/min,Poor (“poor” if ΔOD/min was below 0.05),
"Cc1cc(-c2cc(C)c(N)c(C)c2)cc(C)c1N [TMB, 3,3′,5,5′-Tetramethylbenzidine]",0.32 ΔOD/min,High (“high” if ΔOD/min was above 0.2),
"O=N[O-].[K+] [KNO2, Potassium nitrite]",No signal,Poor (“poor” if ΔOD/min was below 0.05),
"N-Ethyl-N-(3-sulfopropyl)-aniline, sodium salt (ALPS)/3-Methyl-2-benzothiazolinone hydrazone (MBTH) [ALPS/MBTH]",,Fair (“fair” if ΔOD/min was between 0.05 and 0.2),Interference by Inhibitor [2]: high numbers of false positives
"N-Ethyl-N-(3-sulfopropyl)-aniline, sodium salt/4AA [ALPS/4AA]",,,ΔOD/min (after inhibitor) [2]: −0.003 ΔOD/min; ΔOD/min (before inhibitor) [2]: 0.086 ΔOD/min
"3,5-Dichloro-2-hydroxybenzenesulfonate, disodium salt/4AA or 3,5-Dichloro-2-hydroxybenzenesulfonic acid/4AA [DHBS/4AA]",,,ΔOD/min (after inhibitor) [2]: 0.002 ΔOD/min; ΔOD/min (before inhibitor) [2]: 0.089 ΔOD/min
"N,N-Bis(4-sulfobutyl)-3,5-dimethylaniline, disodium salt/4AA [MADB/4AA]",0.04 ΔOD/min,Poor (“poor” if ΔOD/min was below 0.05),
"COc1cc(-c2ccc(N)c(OC)c2)ccc1N.Cl.Cl [o-dianisidine, o-Dianisidine dihydrochloride]",,,Sensitivity ([1]; dihydrochloride): precipitated out of solution; behaviour of the chromogenic substrate in blood samples [3]: precipitated from blood samples
"N-(2-Hydroxy-3-sulfopropyl)-3,5-dimethoxyaniline, sodium salt/4AA [HDAOS/4AA]",0.03 ΔOD/min,Poor (“poor” if ΔOD/min was below 0.05),
"N,N-Bis(4-sulfobutyl)-3-methylaniline, disodium salt (TODB)/3-Methyl-2-benzothiazolinone hydrazone (MBTH) [TODB/MBTH]",,Fair (“fair” if ΔOD/min was between 0.05 and 0.2),Interference by Inhibitor [2]: high numbers of false positives
"N-Ethyl-N-(2-hydroxy-3-sulfopropyl)-3,5-dimethylaniline, sodium salt, monohydrate/4AA [MAOS/4AA]",0.045 ΔOD/min,Poor (“poor” if ΔOD/min was below 0.05),
"N-Ethyl-N-(3-sulfopropyl)-3-methoxyaniline, sodium salt, monohydrate/4AA [ADPS/4AA]",0.004 ΔOD/min,Poor (“poor” if ΔOD/min was below 0.05),
4-Methylcatechol/4AA [4-MC/4AA],,Poor (“poor” if ΔOD/min was below 0.05),Interference by Inhibitor [2]: high numbers of false positives
"Nc1ccc(-c2ccc(N)c(N)c2)cc1N [DAB, 3,3′-Diaminobenzidine]",0.0093 ΔOD/min,Poor (“poor” if ΔOD/min was below 0.05),
"CN(C)c1ccc(N(C(=O)NCC(=O)[O-])c2ccc(N(C)C)cc2)cc1.[Na+] [DA64, N-(Carboxymethylaminocarbonyl)-4,4′-bis(dimethylamino)-diphenylamine sodium salt]",0.0012 ΔOD/min,Poor (“poor” if ΔOD/min was below 0.05),
"N-Ethyl-N-(2-hydroxy-3-sulfopropyl)-3-methylaniline, sodium salt, dehydrate/4-Aminoantipyrine (4AA) [TOOS/4AA]",0.12 ΔOD/min,,ΔOD/min (after inhibitor) [2]: 0.004 ΔOD/min; ΔOD/min (before inhibitor) [2]: 0.087 ΔOD/min
"N,N-Bis(4-sulfobutyl)-3-methylaniline, disodium salt/4AA [TODB/4AA]",0.07 ΔOD/min,,ΔOD/min (after inhibitor) [2]: 0.001 ΔOD/min; ΔOD/min (before inhibitor) [2]: 0.077 ΔOD/min
"CN(C)c1ccc2c(c1)Sc1cc(N(C)C)ccc1N2C(=O)NCC(=O)[O-].[Na+] [DA67, 10-(Carboxymethylaminocarbonyl)-3,7-bis(dimethylamino)-phenothiazine sodium salt]",0.023 ΔOD/min,Poor (“poor” if ΔOD/min was below 0.05),
"CC(=O)N1c2ccc(O)cc2Oc2cc(O)ccc21 [Amplex, N-Acetyl-3,7-dihydroxyphenoxazine (Amplex ® UltraRed)]",0.018 ΔOD/min,Poor (“poor” if ΔOD/min was below 0.05),
"N,N-dimethylaniline (DMA)/3-Methyl-2-benzothiazolinone hydrazone (MBTH) [DMA/MBTH]",,Poor (“poor” if ΔOD/min was below 0.05),
"Cc1cc(-c2ccc(NCC(O)CS(=O)(=O)[O-])c(C)c2)ccc1NCC(O)CS(=O)(=O)[O-].[Na+].[Na+] (centres unmarked) [SAT-3, N,N′-Bis(2-hydroxy-3-sulfopropyl)tolidine, disodium salt,]",0 ΔOD/min,Poor (“poor” if ΔOD/min was below 0.05),
"N-Ethyl-N-(3-sulfopropyl)-3-methylaniline, sodium salt/4AA [TOPS/4AA]",0.055 ΔOD/min,,
"N-Ethyl-N-(2-hydroxy-3-sulfopropyl)-3,5-dimethoxyaniline, sodium salt/4AA [DAOS/4AA]",0.025 ΔOD/min,Poor (“poor” if ΔOD/min was below 0.05),
"COc1ccccc1O [Guaiacol, 1-Hydroxy-2-methoxybenzene; 2-Methoxyphenol]",0.37 ΔOD/min,High (“high” if ΔOD/min was above 0.2),
